Our source for the melting point, inhibition and IC50 values is US20060111368A1, “Phosphodiesterase inhibitor” (Kyowa Hakko Kogyo Co., Ltd., priority 2002, published 2006).

Read-outs that look alike come from different tables or passages of the source. A value given as a limit tells only on which side of the number the result lay.

The target in series [1] is T1, PDE10A (Homo sapiens, UniProt Q9Y233).
T1 construct: made in house; host or cells: Sf9 insect cells (baculovirus, pVL1393)
Description: Activity of inhibiting PDE10A activity ([3H]cAMP decomposition inhibiting test). It counts as biochemical. The settings on record: for inhibition at 1 µM: read-out: [3H] cAMP decomposition inhibition rate (%); for IC50: read-out: IC50 (concentration at which to inhibit [3H]cAMP decomposition by 50%). On the procedure:
Activity of Inhibiting PDE10A Activity (^3H]cAMP Decomposition Inhibiting Test)
PCR was performed using DNAs having base sequences described in SEQ ID NO. 1 and SEQ ID NO. 2 as primers and human kidney cDNA as a template to prepare a plasmid containing amplified fragments. The plasmid was cleaved with restriction endonucleases Pst I and Xba I to obtain a Pst I-Xba I fragment of 0.7 kb.
Meanwhile, Est clone (Cosmo Bio, Tokyo) of GenBank, ACCESSION WO 4835 was cleaved with restriction endonucleases Kpn I and Pst I to obtain a Kpn I-Pst I fragment of 1.5 kb.
The resulting Pst I-Xba I fragment of 0.7 kb and Kpn I-Pst I fragment of 1.5 kb were subcloned in a Kpn I-Xba I site of pBluescript II KS(−) (STRATAGENE, La Jolla, Calif., USA),to construct a plasmid having a cDNA fragment completely including a catalyst region of PDE10A. Subsequently, the plasmid was cleaved with restriction endonucleases Kpn I and Not I to obtain a Kpn I-Not I fragment of 2.2 kb.
The resulting Kpn I-Not I fragment of 2.2 kb and a linker having a BamH I-Kpn I cleavage surface prepared by synthetic DNA having base sequences described in SEQ ID NOS. 3 and 4 were subcloned in a BamH I-Not I site of pVL1393 (PharMingen, San Diego, Calif., USA) to obtain a plasmid for preparation of Baculovirus. The plasmid contains a DNA encoding a peptide in which methionine, FLAG tag and a peptide having a 64th to 779th amino acid sequence of PDE10A [GenBank, ACCESSION NP 006652: Gene, vol. 234, p. 109 (1999), J. Biol. Chem., vol. 274, p. 18438 (1999)] are bound in the order.
The above gene recombinational manipulation was performed according to the method described in Molecular Cloning, 2nd edition, Cold Spring Harbor Laboratory Press, New York (1989).
The expression of PDE10A was conducted according to the Baculovirus expression vector system manual (PharMingen) using insect cells. As insect cells, Sf9 cells (Asahi Technoglass, Tokyo) were used. Sf9 cells were infected with a supernatant (co-transfection sup) containing PDE10A expression virus prepared according to the manual, and cultured at 27° C. for 4 days. The cells were recovered, washed with a phosphate-buffered saline (PBS), and then suspended in an extraction solution [20 mmol/L Tris-acetate (pH 7.5), 2 mmol/L MgCl2, 1 mmol/L dithiothreitol, 1 mmol/L ethylenediaminetetraacetic acid (EDTA), 0.25 mol/L sucrose, 250 unit/mL aprotinin, 40 μg/mL phenylmethylsulfonyl fluoride, and 1 μg/mL pepstatin A]. The cells were disrupted in ice with the maximum output under conditions of 5 seconds and five times using an ultrasonic disruption machine (TOMY model UR-200R, TOMY, Tokyo). A soluble fraction was obtained by centrifugation under 10,000 rpm of the fraction at 4° C. for 30 minutes, and the resulting soluble fraction was used for measuring the PDE activity.
The PDE activity was measured according to the method described in Methods Enzymol., vol. 159, p. 457 (1988).
Using [^3H]cAMP as a substrate, an enzyme reaction was conducted in a reaction solution containing 300 μL of 50 mmol/L N,N-bis (2-hydroxyethyl)-2-aminoethanesulfonic acid (pH 7.2), 1 mmol/L MgCl2 and 0.1 mmol/L ethylene glycol-bis (β-aminoethyl ether)-N,N,N′,N′-tetraacetic acid: EGTA). The concentration of the substrate was 0.2 μmol/L. To 95 μL of an enzyme dilute solution were added 5 μL of a test compound (DMSO solution) and 200 μL of a substrate solution. The mixture was incubated at 30° C. for 20 minutes, and then HCl was added to stop the reaction. The reaction product (5′-AMP) was converted to adenosine using 5′-nucleotidase, and separated the unreacted product from the reactant by DEAE-Sephadex A-25 column (Amersham Pharmacia Biotech, Uppsala, Sweden). The elute was moved to scintillation vials, 6 mL of Ultima Gold (Packard Instrument, Meriden, Conn., USA) was added, and the radioactivity was measured for 2 minutes using a liquid scintillation counter (Beckman LS6500, Beckman, Tokyo),. […]

The mark [2] stands for this setting: Test compound concentration 1 μmol/L, substrate [3H]cAMP 0.2 μmol/L.

T1 sequence (Q9Y233 340-1055): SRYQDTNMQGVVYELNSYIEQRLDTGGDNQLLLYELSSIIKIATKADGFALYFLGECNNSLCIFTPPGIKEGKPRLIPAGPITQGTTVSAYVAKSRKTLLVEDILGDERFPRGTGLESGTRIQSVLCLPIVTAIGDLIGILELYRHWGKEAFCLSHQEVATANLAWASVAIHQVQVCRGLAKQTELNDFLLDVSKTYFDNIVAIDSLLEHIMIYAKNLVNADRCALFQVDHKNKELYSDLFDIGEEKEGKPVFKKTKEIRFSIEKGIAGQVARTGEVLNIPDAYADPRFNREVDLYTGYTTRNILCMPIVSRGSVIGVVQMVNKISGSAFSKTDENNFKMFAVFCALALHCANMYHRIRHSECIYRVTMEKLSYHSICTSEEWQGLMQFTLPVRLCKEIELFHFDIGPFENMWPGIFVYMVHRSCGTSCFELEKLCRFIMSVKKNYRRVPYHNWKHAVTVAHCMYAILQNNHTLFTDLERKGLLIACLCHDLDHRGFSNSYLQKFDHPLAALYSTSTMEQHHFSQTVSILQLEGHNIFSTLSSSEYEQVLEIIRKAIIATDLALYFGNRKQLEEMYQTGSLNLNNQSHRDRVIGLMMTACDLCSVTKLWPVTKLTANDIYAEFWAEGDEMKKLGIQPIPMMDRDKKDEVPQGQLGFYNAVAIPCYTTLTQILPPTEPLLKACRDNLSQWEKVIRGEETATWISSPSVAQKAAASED

For the compound `COc1ccc(-c2ccc(-c3nc4ccc(F)cc4c(CO)c3C)cc2)c(OC)c1` [Compound 8, 2-(2′,4′-dimethoxybiphenyl-4-yl)-6-fluoro-4-hydroxym ethyl-3-methylquinoline], the melting point (commonly the temperature, or range, at which the solid turns liquid) lay within 205 to 207 °C. Also, in series [1] (setting [2]), the inhibition (in general, how much of the control response was suppressed) at 1 µM stood at 68%.
Turning to `CCOc1ccccc1-c1ccc(-c2nc3ccc(F)cc3c(CO)c2C)cc1` [Compound 3, 2-(21-Ethoxybiphenyl-4-yl)-6-fluoro-4-hydroxymethyl-3-methylquinoline], the melting point is 140 to 143 °C. Moreover, in series [1] (setting [2]), the inhibition at 1 µM was determined as 97%. In addition, the IC50 in series [1] (substrate [3H]cAMP 0.2 μmol/L) is 0.076 µM.
As for `Cc1c(-c2ccc(-c3ccccc3-c3ccccc3)cc2)nc2ccc(F)cc2c1C(=O)O` [Compound C, 6-Fluoro-3-methyl-2-([1,1′:2′,1″-terphenyl)-4-yl)quinoline-4-carboxylic acid], the melting point was > 300 °C. Moreover, the inhibition at 1 µM in series [1] was found to be 99%. Further, in series [1] (substrate [3H]cAMP 0.2 μmol/L), the IC50 is 0.0009 µM.
With `Cc1ccccc1-c1ccc(-c2nc3ccc(F)cc3c(C(=O)O)c2C)cc1` [H, 6-Fluoro-3-methyl-2-(2′-methylbiphenyl-4-yl)quinoline-4-carboxylic acid], the melting point is 260 °C (dec.). For the same compound, in series [1] (setting [2]), the inhibition at 1 µM came to 97%. Also, the IC50 in series [1] (substrate [3H]cAMP 0.2 μmol/L) was found to be 0.047 µM.
On the same counts, the results for `COc1ccccc1-c1ccc(-c2nc3ccc(F)cc3c(C(=O)O)c2C)cc1` [D, 6-Fluoro-2-(2′-methoxybiphenyl-4-yl)-3-methylquinoline-4-carboxylic acid] are 283 to 295 °C, 99% and 0.011 µM.
In turn, `Cc1c(-c2ccc(-c3ccccc3CN3CCOCC3)cc2)nc2ccc(F)cc2c1C(=O)O` [M, 6-Fluoro-3-methyl-2-(2′-morpholinomethylbiphenyl-4-yl)quinoline-4-carboxylic acid] came in with a melting point of 163 to 165 °C. Besides, the inhibition at 1 µM in series [1] (setting [2]) came out at 98%. For the same compound, in series [1] (substrate [3H]cAMP 0.2 μmol/L), the IC50 is 0.027 µM.
`Cc1c(-c2ccc(-c3ccccc3CN3CCN(c4ccccc4)CC3)cc2)nc2ccc(F)cc2c1C(=O)O` [L, 6-Fluoro-3-methyl-2-[21-(4-phenylpiperazin-1-yl)methylbiphenyl-4-yl]quinoline-4-carboxylic acid]: the melting point was in the range of 189 to 190 °C. Besides, in series [1] (setting [2]), the inhibition at 1 µM came to 99%. For the same compound, the IC50 in series [1] (substrate [3H]cAMP 0.2 μmol/L) was 0.021 µM.
On the same counts, the results for `Cc1c(-c2ccc(-c3ccccc3CNc3ccccc3)cc2)nc2ccc(F)cc2c1CO` [Compound 13, 6-Fluoro-4-hydroxymethyl-3-methyl-2-[2′-(phenylamino)methylbiphenyl-4-yl]quinoline] are 201 to 202 °C, 90% and 0.103 µM.
On the same counts, the results for `Cc1c(-c2ccc(-c3ccccc3-c3ccccc3)cc2)nc2ccc(F)cc2c1CO` [Compound 1, 6-Fluoro-4-hydroxymethyl-3-methyl-2-([1,1′:2′,1″-terphenyl]-4-yl)quinoline] are 121 to 123 °C, 99% and 0.0042 µM.
